The subject of series [1] is Mycosphaerella graminicola; anamorph: Septoria tritici; Bayer code SEPTTR. Briefly: Fungicidal activity: leaf blotch of wheat, greenhouse wheat plants (variety Yuma), percent disease control. The settings on record: Zymoseptoria tritici. It is filed as in vivo. The method, then: Evaluation of Fungicidal Activity: Leaf Blotch of Wheat (Mycosphaerella graminicola; anamorph: Septoria tritici; Bayer code SEPTTR)
Wheat plants (variety Yuma) were grown from seed in a greenhouse in 50% mineral soil/50% soil-less Metro mix until the first leaf was fully emerged, with 7-10 seedlings per pot. These plants were inoculated with an aqueous spore suspension of Septoria tritici either prior to or after fungicide treatments. After inoculation the plants were kept in 100% relative humidity (one day in a dark dew chamber followed by two to three days in a lighted dew chamber) to permit spores to germinate and infect the leaf. The plants were then transferred to a greenhouse for disease to develop.
The effectiveness of the test compounds in controlling disease was determined by assessing the severity of disease on treated plants, then converting the severity to percent control based on the level of disease on untreated, inoculated plants. • In each case of Table II the rating scale is as follows: […]

[2] abbreviates: 24 h, read-out: SEPTTR 100 PPM 1DP (% Disease Control rating).
Setting [3] is: 72 h, read-out: SEPTTR 100 PPM 3DC (% Disease Control rating).
Where [4] appears, read: 24 h, One-Day Protectant (1DP), 100 ppm, wheat plants, read-out: SEPTTR 100 PPM 1DP (% Disease Control rating).
Where [5] appears, read: 72 h, Three-Day Curative (3DC), 100 ppm, wheat plants, read-out: SEPTTR 100 PPM 3DC (% Disease Control rating).

Molecules are shown by their SMILES. Like-named read-outs stand apart in the source and are kept apart here.

The values below come from patent US8916579B2, “5-fluoropyrimidinone derivatives” (Dow AgroSciences, LLC., priority 2009, dated 2014).

As a reminder, the melting point is the temperature, or range, at which the solid turns liquid.

Regarding `CSCn1cc(F)c(/N=C/N(C)C)nc1=O` [Compound 24, N′-(5-fluoro-1-methylsulfanylmethyl-2-oxo-1,2-dihydropyrimidin-4-yl)-N,N-dimethylformamidine], the melting point lay within 132 to 136 °C. Besides, in series [1] (setting [2]), the pest or weed control at 100 ppm lay in the range of 76 to 100%. Moreover, the pest or weed control at 100 ppm in series [1] (setting [3]) was in the range of 76 to 100%.
Take `CC(=O)Nc1nc(=O)n(CC(C)C)cc1F` [Compound 97]: the melting point was in the range of 134.5 to 136.5 °C. Moreover, the pest or weed control at 100 ppm in series [1] (setting [4]) fell in the range of 26 to 50%. Further, in series [1] (setting [5]), the pest or weed control at 100 ppm fell in the range of 26 to 50%.
In turn, `Nc1nc(=O)n(CCCCI)cc1F` [Compound 26, 4-amino-5-fluoro-1-(4-iodobutyl)-1H-pyrimidin-2-one] returned a melting point of 181 to 184 °C. The pest or weed control at 100 ppm in series [1] (setting [2]) lay within 0 to 25%. Moreover, in series [1] (setting [3]), the pest or weed control at 100 ppm lay in the range of 26 to 50%.
With `Nc1nc(=O)n(CC2CCOC2)cc1F` (stereo not drawn) [Compound 32], the melting point is 255 °C (dec.). Besides, the pest or weed control at 100 ppm in series [1] (setting [4]) is 76 to 100%. In addition, the pest or weed control at 100 ppm in series [1] (setting [5]) lay within 76 to 100%.
Take `Nc1nc(=O)n(Cc2ccc(F)cc2F)cc1F` [Compound 33]: the melting point fell in the range of 250 to 254 °C. Further, in series [1] (setting [4]), the pest or weed control at 100 ppm lay in the range of 0 to 25%. Also, in series [1] (setting [5]), the pest or weed control at 100 ppm was in the range of 51 to 75%.
The corresponding values for `COc1ccc(-n2cc(F)c(NCc3ccccc3F)nc2=O)cc1OC` [Compound 66] are 206.3 to 207.9 °C, 0 to 25% and 0 to 25%.
Regarding `Cc1ccc(NC(=O)Nc2nc(=O)n(CC3CC3)cc2F)cc1` [Compound 88], the melting point lay within 205.6 to 207.5 °C. Besides, the pest or weed control at 100 ppm in series [1] (setting [4]) fell in the range of 0 to 25%. For the same compound, in series [1] (setting [5]), the pest or weed control at 100 ppm fell in the range of 51 to 75%.
The compound `CCCCCNC(=O)Nc1nc(=O)n(CSC)cc1F` [Compound 92] yielded a melting point of 100.2 to 101.8 °C. In addition, the pest or weed control at 100 ppm in series [1] (setting [4]) fell in the range of 76 to 100%. Moreover, in series [1] (setting [5]), the pest or weed control at 100 ppm is 76 to 100%.
Compound `COc1ccc(-n2cc(F)c(/N=C/N(C)C)nc2=O)cc1OC` [Compound 57] gave a melting point of 196.1 to 198 °C. Also, the pest or weed control at 100 ppm in series [1] (setting [4]) fell in the range of 0 to 25%. Also, the pest or weed control at 100 ppm in series [1] (setting [5]) was in the range of 0 to 25%.
As to `Nc1nc(=O)n(COCc2ccccc2)cc1F` [Compound 14, 4-amino-1-(benzyloxymethyl)-5-fluoropyrimidin-2(1H)-one], the melting point is 213 to 217 °C. Further, in series [1] (setting [4]), the pest or weed control at 100 ppm was in the range of 0 to 25%. For the same compound, the pest or weed control at 100 ppm in series [1] (setting [5]) lay within 0 to 25%.
As for `CCOC(=O)C(OCC)n1cc(F)c(N)nc1=O` (stereo not drawn) [Compound 20], the melting point was 150 to 154 °C. Moreover, the pest or weed control at 100 ppm in series [1] (setting [4]) was 0 to 25%. In addition, in series [1] (setting [5]), the pest or weed control at 100 ppm lay in the range of 0 to 25%.
The compound `CN(C)/C=N/c1nc(=O)n(-c2ccsc2)cc1F` [Compound 56, (E)-N′-(5-fluoro-2-oxo-1-(thiophen-3-yl)-1,2-dihydropyrimidin-4-yl)-N,N-dimethylformimidamide] yielded a melting point of 211 to 213 °C. In series [1] (setting [4]), the pest or weed control at 100 ppm is 26 to 50%. For the same compound, the pest or weed control at 100 ppm in series [1] (setting [5]) lay within 51 to 75%.
Taken in the same sequence, the figures for `Cc1ccc(-n2cc(F)c(N)nc2=O)cc1` [Compound 43] were 225 to 227 °C, 26 to 50% and 0 to 25%.
As to `Nc1nc(=O)n(-c2ccsc2)cc1F` [Compound 39, 4-amino-5-fluoro-1-(thiophen-3-yl)pyrimidin-2(1H)-one], the melting point lay within 228 to 229 °C. The pest or weed control at 100 ppm in series [1] (setting [2]) is 0 to 25%. Besides, in series [1] (setting [3]), the pest or weed control at 100 ppm lay within 76 to 100%.
Consider `CCCCCNC(=O)Nc1nc(=O)n(CC2CC2)cc1F` [Compound 87], for which the melting point fell in the range of 113 to 114.9 °C. The pest or weed control at 100 ppm in series [1] (setting [4]) was 0 to 25%. Also, the pest or weed control at 100 ppm in series [1] (setting [5]) lay within 51 to 75%.
`Nc1nc(=O)n(CCc2ccc(Cl)cc2)cc1F` [Compound 31]: the melting point fell in the range of 252 to 254 °C. Moreover, the pest or weed control at 100 ppm in series [1] (setting [4]) was 0 to 25%. Further, in series [1] (setting [5]), the pest or weed control at 100 ppm was in the range of 76 to 100%.
The corresponding values for `C=Cn1cc(F)c(/N=C/N(C)C)nc1=O` [Compound 58] are 179.6 to 181.3 °C, 76 to 100% and 76 to 100%.
The corresponding values for `Cc1ccc(Cn2cc(F)c(/N=C/N(C)C)nc2=O)cc1` [Compound 7] are 178 to 179 °C, 0 to 25% and 0 to 25%.
Taken in the same sequence, the figures for `CCOC(=O)Cn1cc(F)c(/N=C/N(C)C)nc1=O` [Compound 36] were 196 to 199 °C, 51 to 75% and 26 to 50%.
`CC(C)COC(=O)Nc1nc(=O)n(C)cc1F` [Compound 10, (5-fluoro-1-methyl-2-oxo-1,2-dihydropyrimidin-4-yl)carbamic acid isobutyl ester] showed a melting point of 126 to 128 °C. In series [1] (setting [2]), the pest or weed control at 100 ppm was 26 to 50%. The pest or weed control at 100 ppm in series [1] (setting [3]) was 51 to 75%.
Compound `CCCCCNC(=O)Nc1nc(=O)n(Cc2cccnc2)cc1F` [Compound 89] had a melting point of 146 to 147.6 °C. Besides, the pest or weed control at 100 ppm in series [1] (setting [4]) fell in the range of 0 to 25%. The pest or weed control at 100 ppm in series [1] (setting [5]) lay within 26 to 50%.
As to `CC(C)Cn1cc(F)c(NCc2cccs2)nc1=O` [Compound 106], the melting point lay in the range of 88.8 to 91.7 °C. For the same compound, the pest or weed control at 100 ppm in series [1] (setting [4]) lay in the range of 26 to 50%. Also, in series [1] (setting [5]), the pest or weed control at 100 ppm was in the range of 26 to 50%.
In the case of `CN(C)/C=N/c1nc(=O)n(Cc2ccc(F)c(F)c2)cc1F` [Compound 35], the melting point was in the range of 196 to 200 °C. Also, in series [1] (setting [4]), the pest or weed control at 100 ppm was in the range of 51 to 75%. In addition, the pest or weed control at 100 ppm in series [1] (setting [5]) is 51 to 75%.
For `CCOC(=O)Nc1nc(=O)n(CC2CC2)cc1F` [Compound 80, ethyl 1-(cyclopropylmethyl)-5-fluoro-2-oxo-1,2-dihydropyrimidin-4-ylcarbamate], the melting point is 90 to 92 °C. Besides, the pest or weed control at 100 ppm in series [1] (setting [2]) was 0 to 25%. Further, in series [1] (setting [3]), the pest or weed control at 100 ppm lay within 51 to 75%.
Consider `Cn1cc(F)c(N)nc1=O` [Compound 28, 4-amino-5-fluoro-1-methylpyrimidin-2(1H)-one], for which the melting point is 195 °C (dec.). Moreover, the pest or weed control at 100 ppm in series [1] (setting [4]) lay within 51 to 75%. Moreover, the pest or weed control at 100 ppm in series [1] (setting [5]) was in the range of 76 to 100%.
Taken in the same sequence, the figures for `CCn1cc(F)c(N)nc1=O` [Compound 29] were 279 °C (dec.), 51 to 75% and 76 to 100%.
The corresponding values for `O=C(Nc1ccccc1Cl)Nc1nc(=O)n(Cc2cccnc2)cc1F` [Compound 91] are 210.5 to 212.3 °C, 0 to 25% and 0 to 25%.
Taken in the same sequence, the figures for `CC(C)Cn1cc(F)c(NC(=O)c2cccs2)nc1=O` [Compound 99] were 125.6 to 127.5 °C, 0 to 25% and 76 to 100%.
`C[Si](C)(C)CCOCn1cc(F)c(N)nc1=O` [Compound 17] came in with a melting point of 187 to 192 °C. In addition, the pest or weed control at 100 ppm in series [1] (setting [4]) is 51 to 75%. For the same compound, the pest or weed control at 100 ppm in series [1] (setting [5]) was in the range of 76 to 100%.
